US20080119412A1, “Polypeptides for Modulating Binding of Trp Channel Proteins and Trp- Associated Proteins” (NoNO Inc., priority 2003, published 2008)
Residues, ends and D or L forms follow the SMILES beside them. No end group written: not given here. *: point of attachment. Biotin = O=C1N[C@H]2[C@H](CS[C@H]2CCCCC(=O)*)N1

Columns and labels:
[1] = target: T1, INADL d3 (Homo sapiens, UniProt Q8NI35); test: G3 assay titration, GST-PDZ fusion / biotinylated peptide; assay type: binding
T1 construct: made in house; host or cells: E. coli (DH5alpha, BL21 or JM109)
T1 sequence (Q8NI35 with tags, fused parts or gaps): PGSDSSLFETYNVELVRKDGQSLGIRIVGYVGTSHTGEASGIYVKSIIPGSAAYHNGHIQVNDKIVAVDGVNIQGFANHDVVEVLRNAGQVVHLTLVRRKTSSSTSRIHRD
Description: (§1) The G3 assay is identical to the G0 assay with the following exceptions. The peptides are typically present at 0.1 μM rather than 20 μM. The peptides are also pre-incubated with the HRP-streptavidin prior to adding to the assay plate. In the G0 assay, free peptide is incubated with the PDZ proteins prior to the addition of the HRP-streptavidin. Thus, for the G0 assay one can lose signal if the bound peptide dissociates from the PDZ protein prior to the addition of the HRP-streptavidin. In the G3 modified assay the HRP-streptavidin/peptide complex is added to the plate in one step, thus increasing the likelihood that all the bound peptide will be bound to HRP-streptavidin. The G3 modified assay increases the chance of observing weak interactions.
(§2) This example describes assays to identify binding between TRPM7 and PDZ domains. GST-PDZ fusions are produced that each contain an entire PDZ domain (or multiple PDZ domains), the collection encompassing approximately 90% of all PDZ domains identified in the human genome. (See Table 5 and Section V (PDZ Proteins and PL Protein Interactions Disclosure). Biotinylated peptide corresponding to 11 residues of Tat coupled to the C-terminal 9 amino acids of TRPM7 ([…]; SEQ ID NO:258) is synthesized and purified by HPLC.
(§3) • Nunc MaxiSorp 96 well Immuno-plate, Nunc • PBS pH 7.4 (phosphate buffered saline, 8 g NaCl, 0.29 g KCl, 1.44 g Na2HPO4, 0.24 g KH2PO4, add H2O to 1 liter and pH 7.4; 0.2 μm filter) • Assay Buffer: 2% BSA in PBS (20 g of bovine serum albumin per liter PBS, fraction V, ICN Biomedicals, cat#IC15142983 • Goat anti-GST polyclonal Ab, stock 5 mg/ml, stored at 4° C., Amersham Pharmacia cat#27-4577-01 • Dilute 1:1000 in PBS, final concentration 5 μg/ml. • HRP-Streptavidin, 2.5 mg/2 ml stock stored at 4° C., Zymed cat#43-4323, dilute 1:2000 into Assay buffer, final concentration of […] • Wash Buffer, PBS • Biotinylated peptides (HPLC purified, stock solution stored in −20° C. freezer) • GST-PRISM proteins (stock stored at −80° C., after 1st thaw store in −10° C. freezer) • TMB (3,3′,5,5′, teramethylbensidine), tablets, Sigma cat.#T5525 • Per plate, dissolve 1 tablet in 1 ml DMSO, add 9 ml Citrate/Phosphate buffer pH 5.4 and 2 μL H2O2 • 0.1 M H2SO4, Sigma cat.#S1526 • 12-w multichannel pipettor & tips • 50 ml reagent reservoirs, Costar#4870 • 50, 15 ml polypropylene conical tubes • Costar Transtar 96 Costar #7605 • Transtar 96 Cartridge Costar #7610 • Molecular Devices microplate reader (450 & 650 nm filters) with SoftMax Pro software *When using reagents stored at or 4° C. or −20° C., remove & keep on ice
(§4) • 1. Coat plate with 100 μl of 5 μg/ml anti-GST, overnight at 4° C. • 2. Dump contents of plate & out tap dry on paper towels • 3. Block with 200 μl Assay Buffer for 2 hrs at room temperature • 4. Prepare proteins at 5 μg/ml in Assay Buffer • 5. Wash 3× with cold PBS (4° C.), avoiding letting the plates dry out • 6. Add proteins at 50 μl per well, incubate 1 to 2 hrs at 4° C. • 7. Prepare peptides to desired concentration in Assay Buffer • 8. Wash 3× with cold PBS (4° C.), avoiding letting the plates dry out • 9. Add HRP-Streptavidin/peptide complex [prepared by incubating for 20 minutes at room temperature HRP-Streptavidin (1:2000) with the desired biotin-peptide concentration for 20 minutes at room temperature] at 50 μl per well on ice • 10. Place at room temperature for exactly 30 minutes • 11. Promptly wash 5× with PBS at room temperature • 12. Add 100 μl/well TMB substrate (write time on plate) • 13. Incubate in dark at room temperature for a maximum of 30 minutes • 14. Read plate at 25 minutes (650 nm), optional • 15. Stop reaction with 100 μl of 0.18 M H2SO4, 30 minutes after adding TMB • Take last reading at 450 nm soon after stopping reaction
(§5) The G3 assay was performed using 0.1 μM peptide representing 11 amino acids of Tat fused to the final 9 amino acids of TRPM7 ([…]; SEQ ID NO:258). […]

[2] = target: T2, ZO-1 d2 (Homo sapiens, UniProt Q07157, DEL264-264); test: as above; assay type: binding
T2 construct: made in house; host or cells: E. coli (DH5alpha, BL21 or JM109)
T2 sequence (Q07157 with tags, fused parts or gaps DEL264-264): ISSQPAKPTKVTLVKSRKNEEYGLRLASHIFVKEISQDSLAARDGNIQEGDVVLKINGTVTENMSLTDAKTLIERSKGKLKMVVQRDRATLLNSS
Description: as §1, §2, §3, §4, §5

Compound: CC[C@H](C)[C@H](NC(=O)[C@H](CCCNC(=N)N)NC(=O)[C@H](Cc1ccc(O)cc1)NC(=O)[C@H](CCCNC(=N)N)NC(=O)[C@H](CC(=O)O)NC(=O)CNC(=O)[C@H](CCCNC(=N)N)NC(=O)[C@H](C)NC(=O)[C@H](CCCNC(=N)N)NC(=O)[C@H](CCCNC(=N)N)NC(=O)[C@H](CCCNC(=N)N)NC(=O)[C@H](CCC(N)=O)NC(=O)[C@H](CCCNC(=N)N)NC(=O)[C@H](CCCNC(=N)N)NC(=O)[C@H](CCCCN)NC(=O)[C@H](CCCCN)NC(=O)[C@H](CCCNC(=N)N)NC(=O)CNC(=O)[C@H](Cc1ccc(O)cc1)NC(=O)CCCC[C@@H]1SC[C@@H]2NC(=O)N[C@@H]21)C(=O)N[C@H](C(=O)O)C(C)C [Peptide 1845] (Biotin-YGRKKRRQRRRARGDRYRIV-OH)
- EC50 [1]: < 100 nM
- EC50 [2]: < 100 nM

Compound: CC[C@H](C)[C@H](NC(=O)[C@@H](NC(=O)[C@H](CCCNC(=N)N)NC(=O)[C@H](CC(=O)O)NC(=O)[C@H](CO)NC(=O)[C@H](CCCNC(=N)N)NC(=O)[C@H](C)NC(=O)[C@H](CCCNC(=N)N)NC(=O)[C@H](CCCNC(=N)N)NC(=O)[C@H](CCCNC(=N)N)NC(=O)[C@H](CCC(N)=O)NC(=O)[C@H](CCCNC(=N)N)NC(=O)[C@H](CCCNC(=N)N)NC(=O)[C@H](CCCCN)NC(=O)[C@H](CCCCN)NC(=O)[C@H](CCCNC(=N)N)NC(=O)CNC(=O)[C@H](Cc1ccc(O)cc1)NC(=O)CCCC[C@@H]1SC[C@@H]2NC(=O)N[C@@H]21)[C@@H](C)O)C(=O)N[C@H](C(=O)N[C@@H](C)C(=O)O)[C@@H](C)CC [Peptide 1830] (Biotin-YGRKKRRQRRRARSDRTIIA-OH)
- EC50 [1]: < 2000 nM
- EC50 [2]: < 20 nM

Compound: Biotin-YGRKKRRQRRRSRTDRLEYV [Peptide 1846]
- ODmax (450 nm) ([1]; Table 10, titration of peptides with INADL d3): 1.50

Compound: CC[C@H](C)[C@H](NC(=O)[C@H](CO)NC(=O)[C@@H](NC(=O)[C@H](C)NC(=O)[C@H](C)NC(=O)[C@@H](NC(=O)[C@H](C)NC(=O)[C@H](CCCNC(=N)N)NC(=O)[C@H](CCCNC(=N)N)NC(=O)[C@H](CCCNC(=N)N)NC(=O)[C@H](CCC(N)=O)NC(=O)[C@H](CCCNC(=N)N)NC(=O)[C@H](CCCNC(=N)N)NC(=O)[C@H](CCCCN)NC(=O)[C@H](CCCCN)NC(=O)[C@H](CCCNC(=N)N)NC(=O)CNC(=O)[C@H](Cc1ccc(O)cc1)NC(=O)CCCC[C@@H]1SC[C@@H]2NC(=O)N[C@@H]21)C(C)C)[C@@H](C)O)C(=O)N[C@@H](CC(N)=O)C(=O)N[C@@H](CC(C)C)C(=O)O [Peptide 1791] (Biotin-YGRKKRRQRRRAVAATSINL-OH)
- EC50 [2]: < 100 nM

Compound: CC[C@H](C)[C@H](NC(=O)[C@@H](NC(=O)[C@H](CCCNC(=N)N)NC(=O)[C@H](CC(=O)O)NC(=O)CNC(=O)[C@H](CCCNC(=N)N)NC(=O)[C@H](C)NC(=O)[C@H](CCCNC(=N)N)NC(=O)[C@H](CCCNC(=N)N)NC(=O)[C@H](CCCNC(=N)N)NC(=O)[C@H](CCC(N)=O)NC(=O)[C@H](CCCNC(=N)N)NC(=O)[C@H](CCCNC(=N)N)NC(=O)[C@H](CCCCN)NC(=O)[C@H](CCCCN)NC(=O)[C@H](CCCNC(=N)N)NC(=O)CNC(=O)[C@H](Cc1ccc(O)cc1)NC(=O)CCCC[C@@H]1SC[C@@H]2NC(=O)N[C@@H]21)[C@@H](C)O)C(=O)N[C@H](C(=O)N[C@@H](Cc1ccc(O)cc1)C(=O)O)[C@@H](C)CC [Peptide 1848] (Biotin-YGRKKRRQRRRARGDRTIIY-OH)
- EC50 [1]: < 2000 nM
- EC50 [2]: < 20 nM

Compound: CC(C)C[C@H](NC(=O)[C@H](CCCNC(=N)N)NC(=O)[C@@H](NC(=O)CNC(=O)[C@H](CCCNC(=N)N)NC(=O)[C@H](C)NC(=O)[C@H](CCCNC(=N)N)NC(=O)[C@H](CCCNC(=N)N)NC(=O)[C@H](CCCNC(=N)N)NC(=O)[C@H](CCC(N)=O)NC(=O)[C@H](CCCNC(=N)N)NC(=O)[C@H](CCCNC(=N)N)NC(=O)[C@H](CCCCN)NC(=O)[C@H](CCCCN)NC(=O)[C@H](CCCNC(=N)N)NC(=O)CNC(=O)[C@H](Cc1ccc(O)cc1)NC(=O)CCCC[C@@H]1SC[C@@H]2NC(=O)N[C@@H]21)[C@@H](C)O)C(=O)N[C@H](C(=O)N[C@@H](Cc1c[nH]c2ccccc12)C(=O)N[C@H](C(=O)O)C(C)C)C(C)C [Peptide 1844] (Biotin-YGRKKRRQRRRARGTRLVWV-OH)
- EC50 [1]: < 20 nM
- EC50 [2]: < 20 nM

Compound: CC[C@H](C)[C@H](NC(=O)[C@H](Cc1ccc(O)cc1)NC(=O)[C@H](CCCCN)NC(=O)[C@H](CCCNC(=N)N)NC(=O)[C@H](CC(=O)O)NC(=O)CNC(=O)[C@H](CCCNC(=N)N)NC(=O)[C@H](C)NC(=O)[C@H](CCCNC(=N)N)NC(=O)[C@H](CCCNC(=N)N)NC(=O)[C@H](CCCNC(=N)N)NC(=O)[C@H](CCC(N)=O)NC(=O)[C@H](CCCNC(=N)N)NC(=O)[C@H](CCCNC(=N)N)NC(=O)[C@H](CCCCN)NC(=O)[C@H](CCCCN)NC(=O)[C@H](CCCNC(=N)N)NC(=O)CNC(=O)[C@H](Cc1ccc(O)cc1)NC(=O)CCCC[C@@H]1SC[C@@H]2NC(=O)N[C@@H]21)C(=O)N[C@H](C(=O)O)C(C)C [Peptide 1838] (Biotin-YGRKKRRQRRRARGDRKYIV-OH)
- EC50 [1]: < 100 nM
- EC50 [2]: < 100 nM

Compound: CC(C)[C@H](NC(=O)[C@H](CCC(=O)O)NC(=O)[C@@H](NC(=O)[C@H](CCCCN)NC(=O)[C@H](CCCNC(=N)N)NC(=O)[C@H](CC(=O)O)NC(=O)[C@@H](NC(=O)[C@H](CCCNC(=N)N)NC(=O)[C@H](C)NC(=O)[C@H](CCCNC(=N)N)NC(=O)[C@H](CCCNC(=N)N)NC(=O)[C@H](CCCNC(=N)N)NC(=O)[C@H](CCC(N)=O)NC(=O)[C@H](CCCNC(=N)N)NC(=O)[C@H](CCCNC(=N)N)NC(=O)[C@H](CCCCN)NC(=O)[C@H](CCCCN)NC(=O)[C@H](CCCNC(=N)N)NC(=O)CNC(=O)[C@H](Cc1ccc(O)cc1)NC(=O)CCCC[C@@H]1SC[C@@H]2NC(=O)N[C@@H]21)[C@@H](C)O)C(C)C)C(=O)O [Peptide 1837] (Biotin-YGRKKRRQRRRARTDRKVEV-OH)
- EC50 [2]: < 20 nM

Compound: CC(C)[C@H](NC(=O)[C@H](Cc1c[nH]c2ccccc12)NC(=O)[C@@H](NC(=O)[C@H](CCC(=O)O)NC(=O)[C@H](CCCNC(=N)N)NC(=O)[C@H](CCCNC(=N)N)NC(=O)CNC(=O)[C@H](CCCNC(=N)N)NC(=O)[C@H](C)NC(=O)[C@H](CCCNC(=N)N)NC(=O)[C@H](CCCNC(=N)N)NC(=O)[C@H](CCCNC(=N)N)NC(=O)[C@H](CCC(N)=O)NC(=O)[C@H](CCCNC(=N)N)NC(=O)[C@H](CCCNC(=N)N)NC(=O)[C@H](CCCCN)NC(=O)[C@H](CCCCN)NC(=O)[C@H](CCCNC(=N)N)NC(=O)CNC(=O)[C@H](Cc1ccc(O)cc1)NC(=O)CCCC[C@@H]1SC[C@@H]2NC(=O)N[C@@H]21)[C@@H](C)O)C(=O)O [Peptide 1854] (Biotin-YGRKKRRQRRRARGRRETWV-OH)
- EC50 [1]: < 20 nM
